Source: US10590086B2, “Pharmaceutical compound” (IOmet Pharma Ltd., priority 2014, dated 2020)

Legend:
[1] = target: T1, TDO (Homo sapiens, UniProt P48775); experiment: A172 kynurenine cell-based assay; parameters: This assay utilised cancer cells which expressed either TDO or IDO; endogenous in cells; host or cells: A172 (human glioblastoma); conditions: A172 human glioblastoma cells, 48 hours, read-out: A172 Kynurenine cell based assay pIC50 (converted)
Summary of the method: (§1)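 A172 glioblastoma cells (TDO; 30,000/well) and SKOV3 ovarian cells (IDO induced with 500 ng/ml IFN-γ; 40,000/well) were grown in phenol red-free RPMI with 10% FCS, 2 mM L-glutamine and 500 μM L-tryptophan. They were incubated ±compound for 48 hours at 37 °C. Supernatant kynurenine was read with Ehrlich's reagent (5 min) at […] absorbance.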

[2] = target: T2, IDO (Homo sapiens, UniProt P14902); experiment: hIDO biochemical coupled assay; conditions: 45 μM L-tryptophan, read-out: hIDO biochemical assay pIC50 (converted)
T2 sequence (P14902 whole entry): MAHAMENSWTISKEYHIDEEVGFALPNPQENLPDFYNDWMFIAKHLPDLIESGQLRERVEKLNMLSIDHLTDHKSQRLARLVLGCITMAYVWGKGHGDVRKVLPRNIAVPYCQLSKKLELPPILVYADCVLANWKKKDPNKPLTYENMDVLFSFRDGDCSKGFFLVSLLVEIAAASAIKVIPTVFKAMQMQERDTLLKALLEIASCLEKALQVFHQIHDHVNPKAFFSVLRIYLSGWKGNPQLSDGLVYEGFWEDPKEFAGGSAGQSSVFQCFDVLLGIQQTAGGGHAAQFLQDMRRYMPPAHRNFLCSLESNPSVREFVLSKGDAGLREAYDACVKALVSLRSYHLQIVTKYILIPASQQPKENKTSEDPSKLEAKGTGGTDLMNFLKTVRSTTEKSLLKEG

[3] = target: T2, IDO; experiment: SKOV3 kynurenine cell-based assay (IDO induced by IFN-γ); parameters: IDO expression was induced in the SKOV3 cells by the addition of 500 ng/ml IFN-γ; endogenous in cells; host or cells: SKOV3 (human ovarian adenocarcinoma), induced with IFN-γ; conditions: 48 hours, read-out: SKOV3 Kynurenine cell based assay pIC50 (converted)
Summary of the method: as §1

[4] = target: T1, TDO; experiment: hTDO biochemical coupled assay; conditions: 330 μM L-tryptophan, read-out: hTDO biochemical assay pIC50 (converted)
[5] = SKOV3 human ovarian adenocarcinoma cells, 500 ng/ml IFN-γ, 500 μM L-tryptophan

T1 sequence (P48775 whole entry): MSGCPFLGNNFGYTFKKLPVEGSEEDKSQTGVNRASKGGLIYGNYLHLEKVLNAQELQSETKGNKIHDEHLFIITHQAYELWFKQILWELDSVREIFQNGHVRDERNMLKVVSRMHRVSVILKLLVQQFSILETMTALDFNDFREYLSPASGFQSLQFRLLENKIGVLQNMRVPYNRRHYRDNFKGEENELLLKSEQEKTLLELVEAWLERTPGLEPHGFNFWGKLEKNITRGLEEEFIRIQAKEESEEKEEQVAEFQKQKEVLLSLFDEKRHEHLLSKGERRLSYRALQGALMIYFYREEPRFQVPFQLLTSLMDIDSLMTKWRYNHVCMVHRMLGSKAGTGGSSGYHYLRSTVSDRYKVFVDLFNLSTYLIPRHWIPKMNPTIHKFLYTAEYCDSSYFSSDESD

| IC50 ([1]; 500 μM L-tryptophan) [µM] | IC50 ([2]; 17 minutes, room temperature) [µM] | IC50 [3, 5] [µM] | IC50 ([4]; 17 minutes, room temperature) [µM] | IC50 [1] [µM] | IC50 [2] [µM] | IC50 ([3]; SKOV3 cells, IDO induced by 500 ng/ml IFN-γ) [µM] | IC50 [4] [µM] | Compound |
| --- | --- | --- | --- | --- | --- | --- | --- | --- |
| 3.24 to 31.6 | > 100 | 3.24 to 31.6 | 3.24 to 31.6 |  |  |  |  | Cc1nc2c(n1C)CN(c1cc(Cl)cc3[nH]ncc13)CC2 [Compound 356] |
| < 3.16 | < 3.16 | 3.24 to 31.6 | < 3.16 |  |  |  |  | NC(=O)C1CCN(c2cc(Cl)cc3[nH]ncc23)CC1 [Compound 226] |
| < 3.16 | > 100 | > 100 | < 3.16 |  |  |  |  | CS(=O)(=O)N1CCOC2(CCN(c3cc(Cl)cc4[nH]ncc34)CC2)C1 [Compound 398] |
| < 3.16 | > 100 | 3.24 to 31.6 | < 3.16 |  |  |  |  | CS(=O)(=O)Nc1ccc2c(c1)CCN(c1cc(Cl)cc3[nH]ncc13)C2 [Compound 342] |
| < 3.16 | < 3.16 | 3.24 to 31.6 | < 3.16 |  |  |  |  | CNC(=O)CN1CCN(c2cc(Cl)cc3[nH]ncc23)CC1(C)C [Compound 413] |
| < 3.16 | 32.4 to 100 | 32.4 to 100 | < 3.16 | 0.055 | 51.3 | 38 | 0.245 | O=C1N[C@H]2CC[C@@H]1CN(c1cc(Cl)cc3[nH]ncc13)C2 [Compound 393, (1R,5S)-3-(6-chloro-1H-indazol-4-yl)-3,6-diazabicyclo[3.2.2]nonan-7-one] |
| 3.24 to 31.6 | > 100 | 3.24 to 31.6 | 3.24 to 31.6 |  |  |  |  | CN1CNC(=O)C12CCN(c1cc(Cl)cc3[nH]ncc13)CC2 [Compound 380] |
| < 3.16 | > 100 | 3.24 to 31.6 | < 3.16 |  |  |  |  | CN1CC2(CCN(c3cc(Cl)cc4[nH]ncc34)CC2)CC1=O [Compound 291] |
| < 3.16 | 3.24 to 31.6 | 3.24 to 31.6 | < 3.16 |  |  |  |  | CNC(=O)C1CCN(c2cc(Cl)cc3[nH]ncc23)CC1 [Compound 249] |
| 3.24 to 31.6 | > 100 | 32.4 to 100 | < 3.16 |  |  |  |  | CS(=O)(=O)NCC1CCCN(c2cc(Cl)cc3[nH]ncc23)C1 (centres unmarked) [Compound 284] |
| < 3.16 | > 100 | 3.24 to 31.6 | < 3.16 |  |  |  |  | Clc1cc(N2CCN(c3ccccn3)CC2)c2cn[nH]c2c1 [Compound 324] |
| < 3.16 | > 100 | 3.24 to 31.6 | < 3.16 |  |  |  |  | Cc1c2c(nn1C)CCN(c1cc(Cl)cc3[nH]ncc13)C2 [Compound 378] |
| < 3.16 | > 100 | 3.24 to 31.6 | < 3.16 |  |  |  |  | O=C1CCCN1C1CCN(c2cc(Cl)cc3[nH]ncc23)CC1 [Compound 372] |
| 3.24 to 31.6 | > 100 | 3.24 to 31.6 | < 3.16 |  |  |  |  | CC(=O)NCC1CCCN(c2cc(Cl)cc3[nH]ncc23)C1 (centres unmarked) [Compound 283] |
| < 3.16 | 32.4 to 100 | 3.24 to 31.6 | < 3.16 |  |  |  |  | CC(=O)N(C)CC1CCN(c2cc(Cl)cc3[nH]ncc23)CC1 [Compound 282] |
| < 3.16 | > 100 | > 100 | 3.24 to 31.6 |  |  |  |  | Clc1cc(N2CCN(c3ncccn3)CC2)c2cn[nH]c2c1 [Compound 309] |
| 3.24 to 31.6 | > 100 | 32.4 to 100 | > 100 |  |  |  |  | CS(=O)(=O)N1CCN(c2cc(Cl)cc3[nH]ncc23)C2CCCCC21 (racemic) [Compound 341] |
| < 3.16 | > 100 | 3.24 to 31.6 | < 3.16 |  |  |  |  | Clc1cc(N2CCc3[nH]ncc3C2)c2cn[nH]c2c1 [Compound 328] |
| < 3.16 | 3.24 to 31.6 | < 3.16 | < 3.16 |  |  |  |  | O=C1CCC2(CCN1)CCN(c1cc(Cl)cc3[nH]ncc13)CC2 [Compound 394] |
| 3.24 to 31.6 | > 100 | > 100 | < 3.16 |  |  |  |  | Cn1cc2c(n1)CN(c1cc(Cl)cc3[nH]ncc13)CC2 [Compound 433] |
| < 3.16 | 3.24 to 31.6 | 3.24 to 31.6 | < 3.16 |  |  |  |  | NS(=O)(=O)N1CC2(CCN(c3cc(Cl)cc4[nH]ncc34)CC2)C1 [Compound 367] |
| < 3.16 | < 3.16 | 3.24 to 31.6 | < 3.16 |  |  |  |  | Clc1cc(N2CCC(n3cccn3)CC2)c2cn[nH]c2c1 [Compound 339] |
| < 3.16 | < 3.16 | < 3.16 | < 3.16 |  |  |  |  | CCN1C(=O)NC2(CCN(c3cc(Cl)cc4[nH]ncc34)CC2)C1=O [Compound 315] |
| < 3.16 | > 100 | > 100 | < 3.16 |  |  |  |  | CN1CCN(c2cc(Cl)cc3[nH]ncc23)CC1=O [Compound 332] |
| < 3.16 | 3.24 to 31.6 | 3.24 to 31.6 | < 3.16 |  |  |  |  | CC(=O)NC1CCN(c2cc(Cl)cc3[nH]ncc23)CC1(C)C (centres unmarked) [Compound 335] |

The next lines start with the compound.

| Compound | IC50 ([1]; 500 μM L-tryptophan) [µM] | IC50 ([2]; 17 minutes, room temperature) [µM] | IC50 [3, 5] [µM] | IC50 ([4]; 17 minutes, room temperature) [µM] | IC50 [1] [µM] | IC50 [2] [µM] | IC50 ([3]; SKOV3 cells, IDO induced by 500 ng/ml IFN-γ) [µM] | IC50 [4] [µM] |
| --- | --- | --- | --- | --- | --- | --- | --- | --- |
| CC(=O)N1CCN(c2cc(Cl)cc3c(N)noc23)CC1 [Compound 303] | 3.24 to 31.6 | > 100 | > 100 | > 100 |  |  |  |  |
| CS(=O)(=O)N1CCC2(CCN(c3cc(Cl)cc4[nH]ncc34)CC2)CC1 [Compound 355] | < 3.16 | 32.4 to 100 | 3.24 to 31.6 | < 3.16 |  |  |  |  |
| OC1(c2cc(Cl)cc3[nH]ncc23)CCOCC1 [Compound 319] | < 3.16 | 3.24 to 31.6 | 32.4 to 100 | < 3.16 |  |  |  |  |
| O=C1NC2(CCN(c3cc(Cl)cc4[nH]ncc34)CC2)C(=O)N1CC1CCOCC1 [Compound 391] | < 3.16 | < 3.16 | < 3.16 | < 3.16 |  |  |  |  |
| COC(C)c1cc(Cl)cc2[nH]ncc12 (centres unmarked) [Compound 287] | 3.24 to 31.6 | > 100 | > 100 | 3.24 to 31.6 |  |  |  |  |
| CC(C)(O)c1cc(Cl)cc2[nH]ncc12 [Compound 259] | < 3.16 | > 100 | 32.4 to 100 | < 3.16 |  |  |  |  |
| NS(=O)(=O)c1ccc(-c2cc(Cl)cc3[nH]ncc23)cc1 [Compound 269] | < 3.16 | > 100 | 3.24 to 31.6 | < 3.16 |  |  |  |  |
| CC(=O)N(C)c1cc(N2CCN(S(C)(=O)=O)CC2)c2cn[nH]c2c1 [Compound 213] | 32.4 to 100 | > 100 | 32.4 to 100 | > 100 |  |  |  |  |
| CS(=O)(=O)c1ccc(-c2cc(Cl)cc3[nH]ncc23)cc1F [Compound 265] | < 3.16 | 3.24 to 31.6 | 3.24 to 31.6 | < 3.16 |  |  |  |  |
| CC(=O)N1CCN(c2cc(Cl)cc3c(N)n[nH]c23)CC1 [Compound 322] | 3.24 to 31.6 | > 100 | 3.24 to 31.6 | > 100 |  |  |  |  |
| CN1C(=O)[C@@H]2CC[C@H]1CN(c1cc(Cl)cc3[nH]ncc13)C2 [Compound 435] | < 3.16 | 3.24 to 31.6 | > 100 | < 3.16 |  |  |  |  |
| CC1(C)CCC(O)(c2cc(Cl)cc3[nH]ncc23)CC1 [Compound 427] | < 3.16 | > 100 | > 100 | 3.24 to 31.6 |  |  |  |  |
| CS(=O)(=O)N1CCN(c2cccc3[nH]ncc23)CC1 [Compound 10] | 3.24 to 31.6 | > 100 | 32.4 to 100 | 3.24 to 31.6 |  |  |  |  |
| CN(c1cc(N2CCN(S(C)(=O)=O)C(C)(C)C2)c2cn[nH]c2c1)S(C)(=O)=O [Compound 310] | 32.4 to 100 | > 100 | > 100 | > 100 |  |  |  |  |
| CC(=O)N1CCC(c2cccc3[nH]ncc23)CC1 [Compound 14] | 3.24 to 31.6 | > 100 | 32.4 to 100 | 32.4 to 100 |  |  |  |  |
| O=C1N[C@H]2CC[C@@H]1CN(c1cc(C(F)(F)F)cc3[nH]ncc13)C2 [Compound 439] | < 3.16 | 3.24 to 31.6 | > 100 | < 3.16 |  |  |  |  |
| COCCS(=O)(=O)N1CCC(c2cc(Cl)cc3[nH]ncc23)CC1 [Compound 228] | < 3.16 | 3.24 to 31.6 | 3.24 to 31.6 | < 3.16 |  |  |  |  |
| CS(=O)(=O)N1CCC(c2cc(C3CCCC3)cc3[nH]ncc23)CC1 [Compound 218] | > 100 | 32.4 to 100 | 32.4 to 100 | > 100 |  |  |  |  |
| OC1(c2cc(Cl)cc3[nH]ncc23)CCCC1 [Compound 320] | < 3.16 | 3.24 to 31.6 | 3.24 to 31.6 | < 3.16 |  |  |  |  |
| Clc1cc(C2CCOCC2)c2cn[nH]c2c1 [Compound 426] | < 3.16 | 3.24 to 31.6 | > 100 | < 3.16 |  |  |  |  |
| CC1(C)CN(c2cc(Cl)cc3c(N)noc23)CCN1S(C)(=O)=O [Compound 317] | > 100 | > 100 | 32.4 to 100 | 3.24 to 31.6 |  |  |  |  |
